Assay results published in patent US20200278355A1, “CONJUGATED PROTEINS AND USES THEREOF” (THE SCRIPPS RESEARCH INSTITUTE, priority 2017, published 2020).
Entries after “also recorded” stand apart in the source; their conditions may differ.

Tests used:
CRY1 protein content = CRY1 protein content by immunoblotting in H460 cells; format: cell-based, human; details: 9 h
Experimental: FIG. 13A-FIG. 13E illustrate characterization of NR0B1 ligands in Keap1-mutant NSCLC cells. […] Top: Heat map depicting changes in gene expression between H460 cells expressing shNRF2, shNR0B1 or a control (shGFP) and those treated with vehicle (DMSO), BPK-29 or BPK-9 (30 μM, 12 h). Expression for each condition was first normalized to appropriate controls (shGFP or DMSO) and then normalized by row. Bottom: Overlap between gene sets regulated in BPK-29-treated vs shNR0B1 H460 cells. Gene set enrichment analysis (GSEA) was applied to all genes that were differentially expressed between shNR0B1-H460 cells and shGFP-H460 cells or between H460 cells treated with BPK-29 or DMSO. Genes were ranked based on their FDR. […] Gene expression changes for CRY1, DEPDC1, and CPLX2 were determined by qPCR and data represents mean values+SD (n=4-10). […] Gene expression changes for Cry1, DEPDC1, and CPLX2 were determined by qPCR and data represents mean values+SD (n=4-6). […] Protein expression was analyzed by immunoblotting. […] Top: H460 cells were treated with cycloheximide (100 μg/mL) for the indicated time points and NR0B1 protein content assessed by immunoblotting. […] NR0B1 protein content was determined following cycloheximide treatment and data were fit into a one-phase exponential decay model. […]

C274 of NR0B1 = target: T1, C274 of NR0B1 (Homo sapiens, UniProt P51843); experiment: Site of labeling by LC-MS/MS of FLAG-NR0B1 tryptic peptides; format: binding; details: BPK-26 100 μM, 3 h in lysate, BPK-29 50 μM, 3 h in HEK293T cells
T1 construct: expressed in transfected cells; host or cells: HEK-293T, transient, pRK5-based vector
T1 sequence (P51843 whole entry): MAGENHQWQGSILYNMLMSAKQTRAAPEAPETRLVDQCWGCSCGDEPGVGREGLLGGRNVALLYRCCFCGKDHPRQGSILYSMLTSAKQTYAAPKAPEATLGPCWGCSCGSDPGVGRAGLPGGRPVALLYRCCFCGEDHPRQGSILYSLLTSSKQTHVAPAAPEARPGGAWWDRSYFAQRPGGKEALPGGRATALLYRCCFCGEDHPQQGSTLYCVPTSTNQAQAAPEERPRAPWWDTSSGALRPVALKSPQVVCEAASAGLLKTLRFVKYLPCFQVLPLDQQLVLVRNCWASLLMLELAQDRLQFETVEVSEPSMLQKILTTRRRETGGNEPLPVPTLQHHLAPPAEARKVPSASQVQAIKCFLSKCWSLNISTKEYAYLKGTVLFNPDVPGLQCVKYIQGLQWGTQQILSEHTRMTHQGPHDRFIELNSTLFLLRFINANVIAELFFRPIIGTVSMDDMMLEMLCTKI
Experimental: FIG. 11A-FIG. 11F illustrate a covalent ligand targeting Cys274 disrupts NR0B1 protein complexes. […] See also FIG. 5C. […] Top: Structures of screening hit BPK-28 and synthesized derivatives. […] The In vitro-binding assay was performed as described in FIG. 5B using compounds at a concentration of 50 μM. Bottom: Data represent mean values±SD normalized to DMSO control. n=4/group. […] Top: Compounds were tested as described in FIG. 5B. Bottom: Graph of concentration-dependent inhibition of NR0B1-SNW1 interactions by the indicated compounds. Percent binding was normalized to vehicle (DMSO). Data represent mean values±SD (n=2-5/group). FIG. 11D and FIG. 11E show NR0B1 ligands BPK-26 (D) and BPK-29 (E) covalently modify C274 in NR0B1. Lysate generate from HEK293T cell expressing FLAG-NR0B1 was treated with DMSO or BPK-26 (100 μM, 3 h, D). […] FLAG-immunoprecipitates were prepared from each lysate and subjected to proteolytic digestion, whereupon tryptic peptides harboring C274 were analyzed by LC-MS/MS. […] Immunoprecipitates were analyzed by in-gel fluorescence-scanning to assess BPK-29yne labeling or by immunoblot for FLAG-NR0B1. […] In a modified in vitro binding assay shown in FIG. 5B, HEK293T cells expressing HA-NR0B1-WT or an HA-NR0B1-C274V mutant were treated with DMSO or BPK-26 (20 μM, 3 h), after which lysates were and interaction with FLAG-SNW1 assessed. […]

covalent modification of C274 of NR0B1 (C274 of NR0B1) | SMILES | CRY1 protein content (CRY1 protein content)
– | O=C(c1ccc(N2CCOCC2)cc1)N1CCC(CN(C(=O)CCl)c2cncnc2)CC1 [BPK-9, 2-chloro-N-((1-(4-morpholinobenzoyl)piperidin-4-yl)methyl)-N-(pyrimidin-5-yl)acetamide] | not observed
covalently modified C274 of NR0B1 | O=C(CCl)N(Cc1cccc(Cl)c1F)c1ccc(Cl)nc1 [BPK-26, 2-chloro-N-(3-chloro-2-fluorobenzyl)-N-(6-chloropyridin-3-yl)acetamide] | –
covalently modified C274 of NR0B1 | O=C(c1ccc(N2CCOCC2)cc1)N1CCCC(N(Cc2ccccc2)C(=O)CCl)CC1 (stereo not shown) [BPK-29, N-benzyl-2-chloro-N-(1-(4-morpholinobenzoyl)azepan-4-yl)acetamide] | reduces CRY1 protein content; also recorded: substantial reduction in CRY1 protein content
